# According to patent US20150157642A1, “COSMETIC METHOD FOR CHANGING THE APPEARANCE OF EYES” (priority 2011, published 2015):
# System: eyelids
# Assay: topical application to the eyelids, eyelid retraction / eye-widening effect
# Assay type: in vivo
# Conditions: topically applied, alone or in combination
# Description: Topical treatments to which the current application is directed include ointments, creams, and solutions that contain one or more of the compounds travoprost, unoprostone, latanoprost, and bimatoprost, alone or in combination, and/or one or more chemically-related compounds and may also include pure forms of various additional types of prostaglandin, synthetic prostaglandin, and synthetic prostaglandin anologues. These ointments and solutions are topically applied to eyelids in order to treat ptosis and/or to improve facial appearance. The ointments and solution may include, in addition to the above-mentioned active ingredients, stabilizers, buffering compounds, salts, carriers, viscosity enhancers, colorants, emollients, emulsifiers, bactericidal and germicidal agents, preservatives, and other ingredients that improve shelf life, application, consistency, and compatibility with topical application, among other things. […] Either pure prostaglandin, synthetic prostaglandin, or synthetic prostaglandin analogues may be rubbed into the eyelid tissues or a relatively concentrated solution of prostaglandin in any of various organic solvents, including ethanol, or ethanol-water mixtures, can be applied to produce the effect. Prostaglandin, synthetic prostaglandin, or synthetic prostaglandin analogs may be additionally included in various eye shadows and other cosmetic products that are routinely applied to eyelids in order to produce the eye-widening cosmetic effect, as well as in many different mixtures, suspensions, solutions, powders, ointments, creams, and other substances.
row,SMILES,eyelid retraction (ameliorating ptosis and/or improving facial appearance)
1,"CC(C)OC(=O)CCCC=CCC1C(O)CC(O)C1C=CC(O)COc1cccc(C(F)(F)F)c1 (stereo not shown) [travoprost, propan-2-yl 7-[3,5-dihydroxy-2-[3-hydroxy-4-[3-(trifluoromethyl)phenoxy]-but-1-enyl]-cyclopentyl]hept-5-enoate]",cause the eyelids to retract more completely
2,"CCCCCCCC(=O)CC[C@@H]1[C@@H](C/C=C\CCCC(=O)OC(C)C)[C@@H](O)C[C@H]1O [unoprostone, isopropyl (Z)-7-[(1R,2R,3R,5S)-3,5-dihydroxy-2-(3-oxodecyl)cyclopentyl]hept-5-enoic acid]",cause the eyelids to retract more completely
3,"CC(C)OC(=O)CCC/C=C\C[C@@H]1[C@@H](CC[C@@H](O)CCc2ccccc2)[C@H](O)C[C@@H]1O [latanoprost, isopropyl (Z)-7-[(1R,2R,3R,5S)-3,5-dihydroxy-2-[(3R)3-hydroxy-5-phenylpentyl]-cyclopentyl]hept-5-enoate]",cause the eyelids to retract more completely
4,"CCNC(=O)CCCC=CCC1C(O)CC(O)C1C=CC(O)CCc1ccccc1 (stereo not shown) [bimatoprost, 7-[3,5-dihydroxy-2-(3-hydroxy-5-phenyl-pent-1-enyl)-cyclopentyl]-N-ethyl-hept-5-enamide]",cause the eyelids to retract more completely
